Laboratory results reported in patent publication US20210253710A1, “DIAGNOSTIC AND THERAPEUTIC METHODS FOR KIDNEY CANCER” (Genentech, Inc., priority 2018, published 2021).
Marks after values point to notes of the source that are not given here.

Legend:
[1] = test system: patients with untreated metastatic renal cell carcinoma; assay: IMmotion151 PFS analysis in biomarker-evaluable subgroups (Angio and Teff gene signatures, MSKCC risk); format: in vivo, human
Experimental: The MSKCC (Motzer) criteria used were as follows. The risk factors included 1) a Karnofsky Performance Status (KPS) score <80; 2) a corrected serum calcium >10 mg/dL; 3) an LDH level >1.5 times the upper limit of normal; 4) a hemoglobin level <the lower limit of normal; 5) a time from nephrectomy to systemic therapy of […] (an individual also was scored as having this risk factor if they were initially assessed with metastatic disease or if they have had no nephrectomy). The risk stratification was as follows: individuals having 3 risk factors belong to the poor risk subgroup; individuals having 1 or 2 risk factors belong to the intermediate risk subgroup; and individuals having 0 risk factors belong to the favorable group. For study purposes, systemic therapy was designated as the date of initial study screening. The formula for corrected calcium was Corrected calcium=serum calcium (mg/dL)+0.8 (4 […] serum albumin (g/dL)).
In the phase II IMmotion150 study, gene signatures were identified based on association with clinical outcome. The T-effector (“Teff”) signature included CD8a, IFNG, PRF1, EOMES, and CD274. The Angiogenesis (“Angio”) signature included VEGFA, KDR, ESM1, PECAM1, CD34, and ANGPTL4. […] In the IMmotion151 study, a pre-specified analysis of association with PFS was performed. Unstratified HR and log-rank test were used for PFS analyses in biomarker-evaluable patients. The IMmotion151 transcriptome map confirmed biological subgroups identified in […], including the angiogenesis, immune and antigen presentation (including the Teff signature), and myeloid inflammation subgroups (FIG. 4).

[2] = test system: safety-evaluable patients with locally advanced or metastatic RCC; assay: IMmotion151 safety (adverse events, AESI); format: in vivo; conditions: for Patients with ≥ 1 event: Adrenal insufficiency, All Grades / Patients with ≥ 1 event: Adrenal insufficiency, Grade 3-4 / Patients with ≥ 1 event: Colitis, All Grades / Patients with ≥ 1 event: Colitis, Grade 3-4 / Patients with ≥ 1 event: Hyperthyroidism, All Grades / Patients with ≥ 1 event: Hyperthyroidism, Grade 3-4 / Patients with ≥ 1 event: Hypothyroidism, All Grades / Patients with ≥ 1 event: Hypothyroidism, Grade 3-4 / Patients with ≥ 1 event: Liver function test abnormalities, All Grades / Patients with ≥ 1 event: Liver function test abnormalities, Grade 3-4 / Patients with ≥ 1 event: Pneumonitis, All Grades / Patients with ≥ 1 event: Pneumonitis, Grade 3-4 / Patients with ≥ 1 event: Rash, All Grades / Patients with ≥ 1 event: Rash, Grade 3-4: AESI; for Patients with ≥ 1 event: Any AESI, All Grades / Patients with ≥ 1 event: Any AESI, Grade 3-4: all treatment-emergent AEs
Experimental: Patients in the Atezolizumab+Bevacizumab (“Atezo+Bev”) arm received both atezolizumab and bevacizumab until loss of clinical benefit, unacceptable toxicity or symptomatic deterioration attributed to disease progression, withdrawal of consent, or death, whichever occured first. Atezolizumab was administered at a fixed dose of 1200 milligrams (mg) via intravenous (IV) infusion on Days 1 and 22 of each 42-day cycle. Bevacizumab was be administered at a dose of 15 milligrams per kilogram (mg/kg) via IV infusion on Days 1 and 22 of each 42-day cycle. Patients in the sunitinib arm received sunitinib until loss of clinical benefit, unacceptable toxicity or symptomatic deterioration attributed to disease progression, withdrawal of consent, or death, whichever occured first. Sunitinib was administered at a dose of 50 mg once daily, orally via capsule, on Day 1 through Day 28 of each 42-day cycle.
IMmotion151 is a multicenter, randomized, open-label, Phase III study evaluating the efficacy and safety of atezolizumab+bevacizumab vs those of sunitinib in patients with previously untreated, inoperable, locally advanced or metastatic RCC (FIG. 1). The co-primary endpoints were (i) investigator (INV)-assessed progression-free survival (PFS) in patients with ≥1% IC expressing PD-L1 (PD-L1+) and (ii) interim overall survival (OS) in the intent-to-treat (ITT) population. Secondary endpoints inclue INV-assessed PFS and OS in patients with sarcomatoid histology and are reported here with INV-assessed objective response rate (ORR), safety, patient-reported outcomes (PROs) of symptoms and function and biomarker evaluation.
Patients were included in this subgroup analysis if their tumor had any component of sarcomatoid histology, referred to in this presentation as “All Sarc,” as reported by the investigator per the local pathology report. P values are for descriptive purposes only. […] The clinical cutoff for PFS, ORR, PRO and safety was Sep. […] The clinical cutoff for OS was Aug.

CCN(CC)CCNC(=O)c1c(C)[nH]c(/C=C2\C(=O)Nc3ccc(F)cc32)c1C [Sunitinib, N-[2-(Diethylamino)ethyl]-5-[(Z)-(5-fluoro-2-oxo-1,2-dihydro-3H-indol-3-ylidene)methyl]-2,4-dimethyl-1H-pyrrole-3-carboxamide]
Teff gene signature and PFS within the treatment arm ([1]; Teff High versus Low within arm, in words): did not differentiate PFS | PFS in the Angio High subgroup versus the Angio Low subgroup ([1]; within sunitinib arm, in words): improved PFS | PFS HR (95% CI) for Angiogenesis (High versus Low) ([1]; within treatment arm): 0.59 (0.47, 0.75) | Treatment-related AEs ([2]; All Safety Evaluable): 96% | Treatment-related AEs leading to discontinuation of any treatment component ([2]; All Safety Evaluable): 8% | Treatment-related AEs leading to discontinuation of treatment regimen ([2]; All Safety Evaluable): 8% | Treatment-related AEs, Grade 3-4 ([2]; All Safety Evaluable): 54% | Treatment-related deaths ([2]; All Safety Evaluable): 1^e n | Patients with ≥ 1 event: Adrenal insufficiency, All Grades ([2]; All Safety Evaluable): 0% | Patients with ≥ 1 event: Adrenal insufficiency, Grade 3-4 ([2]; All Safety Evaluable): 0% | Patients with ≥ 1 event: Colitis, All Grades ([2]; All Safety Evaluable): <1% | Patients with ≥ 1 event: Colitis, Grade 3-4 ([2]; All Safety Evaluable): <1% | Patients with ≥ 1 event: Hyperthyroidism, All Grades ([2]; All Safety Evaluable): 3% | Patients with ≥ 1 event: Hyperthyroidism, Grade 3-4 ([2]; All Safety Evaluable): 0% | Patients with ≥ 1 event: Hypothyroidism, All Grades ([2]; All Safety Evaluable): 26% | Patients with ≥ 1 event: Hypothyroidism, Grade 3-4 ([2]; All Safety Evaluable): <1% | Patients with ≥ 1 event: Liver function test abnormalities, All Grades ([2]; All Safety Evaluable): 18% | Patients with ≥ 1 event: Liver function test abnormalities, Grade 3-4 ([2]; All Safety Evaluable): 4% | Patients with ≥ 1 event: Pneumonitis, All Grades ([2]; All Safety Evaluable): 0% | Patients with ≥ 1 event: Pneumonitis, Grade 3-4 ([2]; All Safety Evaluable): 0% | Patients with ≥ 1 event: Rash, All Grades ([2]; All Safety Evaluable): 15% | Patients with ≥ 1 event: Rash, Grade 3-4 ([2]; All Safety Evaluable): <1% | Patients with ≥ 1 event: Any AESI, All Grades ([2]; All Safety Evaluable): 72% | Patients with ≥ 1 event: Any AESI, Grade 3-4 ([2]; All Safety Evaluable): 17% | Treatment-related AEs ([2]; Sarc Safety Evaluable): 94% | Treatment-related AEs leading to discontinuation of any treatment component ([2]; Sarc Safety Evaluable): 3% | Treatment-related AEs leading to discontinuation of treatment regimen ([2]; Sarc Safety Evaluable): 3% | Treatment-related AEs, Grade 3-4 ([2]; Sarc Safety Evaluable): 49% | Treatment-related deaths ([2]; Sarc Safety Evaluable): 0 n | Patients with ≥ 1 event: Adrenal insufficiency, All Grades ([2]; Sarc Safety Evaluable): 0% | Patients with ≥ 1 event: Adrenal insufficiency, Grade 3-4 ([2]; Sarc Safety Evaluable): 0% | Patients with ≥ 1 event: Colitis, All Grades ([2]; Sarc Safety Evaluable): 1% | Patients with ≥ 1 event: Colitis, Grade 3-4 ([2]; Sarc Safety Evaluable): 0% | Patients with ≥ 1 event: Hyperthyroidism, All Grades ([2]; Sarc Safety Evaluable): 1% | Patients with ≥ 1 event: Hyperthyroidism, Grade 3-4 ([2]; Sarc Safety Evaluable): 0% | Patients with ≥ 1 event: Hypothyroidism, All Grades ([2]; Sarc Safety Evaluable): 16% | Patients with ≥ 1 event: Hypothyroidism, Grade 3-4 ([2]; Sarc Safety Evaluable): 0% | Patients with ≥ 1 event: Liver function test abnormalities, All Grades ([2]; Sarc Safety Evaluable): 10% | Patients with ≥ 1 event: Liver function test abnormalities, Grade 3-4 ([2]; Sarc Safety Evaluable): 3% | Patients with ≥ 1 event: Pneumonitis, All Grades ([2]; Sarc Safety Evaluable): 0% | Patients with ≥ 1 event: Pneumonitis, Grade 3-4 ([2]; Sarc Safety Evaluable): 0% | Patients with ≥ 1 event: Rash, All Grades ([2]; Sarc Safety Evaluable): 14% | Patients with ≥ 1 event: Rash, Grade 3-4 ([2]; Sarc Safety Evaluable): 0% | Patients with ≥ 1 event: Any AESI, All Grades ([2]; Sarc Safety Evaluable): 66% | Patients with ≥ 1 event: Any AESI, Grade 3-4 ([2]; Sarc Safety Evaluable): 11%
